How the values were obtained:
Assay type in all cases: cell-based, human
[1] = system: ASPC-1 cells; assay: Cell viability assay (Alamar Blue) in PDAC cell lines, LGK974 comparator
[2] = system: PaTu-8988S cells; assay: as above
[3] = system: MUC5AC; assay: RT-qPCR of differentiation induced gene MUC5AC; details: RNF43-mutant PDAC cells
Description: Reverse transcription and quantitative real-time PCR: After indicated treatments, cells were lysed in Tri-reagent (BioShop Canada #TSS120) and RNA extracted using the manufacturer's protocol. RNA concentration was quantified with Nanodrop1000 (Thermo Scientific) and 2 micrograms of RNA per sample was DNase I treated (ThermoFisher #AM2222). DNase treated RNA was used to make cDNA with High-Capacity cDNA Reverse Transcription Kit (ThermoFisher #4368813). Real-time PCR was performed using Power SYBR Green Master Mix on the 7900HT Fast Real-Time PCR system. Primer pairs are listed below. Analysis was done using the comparative cycle threshold (CT) method (Bookout et al., 2006) with all samples normalized to PPIB (cyclophilin B) expression. To validate the screen results HPAF-II cells were first infected with lentivirus coding for various gRNAs, transduced cells were selected for 48 hours and plated in clonogenic growth assays. […] In contrast, the growth of PANC-1 and BxPC-3 cell lines, which are wild-type for RNF43, was not inhibited by gRNAs targeting FZD5, FZD7 or CTNNB1 (FIG. 4C and FIG. 5).

[4] = system: HPAF-II cells; assay: Crystal violet staining proliferation (clonogenic growth) assay; details: 100 nM LGK974
Description: Crystal Violet Staining Proliferation Assay: HPAFII Cas9 cells were transduced with lentivirus generated with the indicated pLCKO plasmid as described above. 24 hours after infection cells were treated with puromycin. After 48 hours of selection, cells were PBS washed extensively, dissociated and counted. 2000 cells per well were re-seeded in 24-well format in media without puromycin. 24 hours post seeding, indicated wells were treated with DMSO control or 100 nM LGK974 (Cayman Chemical #14072) (note that these wells were from the LacZ gRNA population). Medium was renewed every 3-4 days and cells were fixed, 10 days post plating, using 100% ice-cold methanol. After fixation cells were stained with 0.5% crystal violet, 25% methanol solution for 20 minutes at room temperature, after which staining solution was removed and plates were washed several times in dH2O.
To validate the screen results HPAF-II cells were first infected with lentivirus coding for various gRNAs, transduced cells were selected for 48 hours and plated in clonogenic growth assays. […] In contrast, the growth of PANC-1 and BxPC-3 cell lines, which are wild-type for RNF43, was not inhibited by gRNAs targeting FZD5, FZD7 or CTNNB1 (FIG. 4C and FIG. 5).

For `Cc1cc(-c2ncc(CC(=O)Nc3ccc(-c4cnccn4)cn3)cc2C)ccn1` [LGK974], the “growth (cell viability)” value [1] was “inhibited the growth”, the “growth (cell viability)” value [2] was “inhibited the growth” and the “expression of the differentiation marker MUC5AC” value [3] was “increased expression”. For the same molecule, the “growth in clonogenic growth assay” value [4] was “robust growth inhibition”.

Reference: patent US20210253718A1, “FRIZZLED5 PROTEIN-BINDING AGENTS” (Modmab Therapeutics Corporation, priority 2016, published 2021)
